US20240308985A1 (Psy Therapeutics, Inc., priority 2021, published 2024)
Where two headings read alike, the source gives them in different places.

Legend:
MAGL enzyme = MAGL enzyme (Homo sapiens (Human), UniProt Q99685); test: MAGL reversible inhibition assay (washout); format: biochemical; design: B: % MAGL activity returning after washout: concentration or dose not given beside the values; conditions: for A: degree to which MAGL enzymatic activity returned following washout of test compounds: pre-washout compound concentration 1 μM; for B: % MAGL activity returning after washout: relative to control (no inhibitor before washout), immediately following a 30 minute washout
Experimental: The reversible mechanism of MAGL inhibition of a test compound of Formula (I) can be determined. Flag-tagged MAGL enzyme will be immobilized on anti-Flag beads. Immobilized enzyme will be incubated +/− inhibitor at a dose that produces complete inhibition. Colorimetric substrate (4-NPA) will be added and the reaction monitored on a plate reader for 30 minutes to verify complete inhibition. Immobilized enzyme will then be washed thoroughly to remove the inhibitor, and fresh substrate will be added. The reaction will be monitored for an additional 30 minutes; returning enzymatic activity will indicate reversibility of inhibition.
MAGL enzyme was incubated for 30 minutes in the presence of 40× the IC50 concentration of inhibitor. Enzyme+inhibitor mix was then diluted 40-fold so that the final concentration of the inhibitor equaled the IC50 concentration. Substrate was added and the reaction was monitored for 30 minutes.

human recombinant FAAH = human recombinant FAAH (Homo sapiens (Human), UniProt O00519); test: FAAH inhibition potency counter screen (IC50); format: biochemical
Experimental: Comparative compound potency at FAAH can be obtained with the following assay.
MAGL inhibitor compounds were also counter-screened for FAAH inhibition potency using the following assay. Assessment of FAAH inhibition was performed using Fatty Acid Amide Hydrolase Inhibitor Screening Assay Kit (Cayman Item No. 10005196) following manufacture's instruction with some modifications. The kit utilizes human recombinant FAAH and the fluorescent substrate, AMC Arachidonoyl amide (AAMCA). 5 μL of assay buffer (125 mM Tris, pH 9.0, 1 mM EDTA, i.e. ethylenediaminetetraacetic acid) was added to a 384-well black plate (Corning, 3573). Test compounds and control inhibitor JZL-195 (Cayman Chemical, 13668) were tested in 10-concentration IC50 mode with 3-fold serial dilution at a starting concentration of 100 μM and 10 μM, respectively. 300 nL or 30 nL of test compounds were delivered into a 384-well black plate (Corning, 3573) using a Labcyte Echo, followed by addition of 15 μL of FAAH enzyme (Cayman, 700302) in assay buffer. After a 5-minute pre-incubation at room temperature, 10 μL of AAMCA was added in assay buffer to start the reaction. Final concentration of FAAH enzyme is not specified and AAMCA substrate was used at the 20 uM. After these dilutions, the final concentration of the test compounds ranged from 100 μM to 5.08 nM or 10 μM down to 0.508 nM. The reaction was allowed to progress for 60 minutes, while the plate was read on an Envision plate reader at an Ex/Em of 350/460 nm with readings every minute. The data was analyzed in Microsoft Excel, using the slope between 30 and 59 minutes. The average of the no-enzyme wells (background) was subtracted from the data. The background-subtracted slope data was converted to % activity using the average of wells with enzyme and DMSO vehicle. IC50 values were calculated using GraphPad software (Sigmoidal dose response, variable slope equation).
Compounds listed in Table D2 were tested in the FAAH Counterscreen of Example 23

[1] = target: Monoacylglycerol Lipase (MAGL) (Homo sapiens (Human), UniProt Q99685); test: MAGL inhibition potency (IC50) assay with 4NPA substrate; format: biochemical
[2] = Pharmacokinetic study of compounds in mice (brain exposure); format: in vivo, male C57BL/6 mice; conditions: male, C57BL/6, mouse, oral, 30 mg/kg, Protocol A
Experimental: Healthy male C57BL/6 mice (8-12 weeks old) weighing between 17 to 35 g were procured from Global, India. Temperature and humidity were maintained at 22±f3° C. and 30-70%, respectively and illumination was controlled to give a sequence of 12 hr light and 12 hr dark cycle. Temperature and humidity were recorded by auto-controlled data logger system. All the animals were provided laboratory rodent diet. Reverse osmosis water treated with ultraviolet light was provided ad libitum.
Protocol A: Twenty-four male mice were divided into two groups as; Group 1: 30 mg/kg/IP; Plasma and brain; Number of animals=12: Animal #1-12. Group 2: 30 mg/kg/PO; Plasma and brain; Number of animals=12; Animal #13-24. Animals in Group 1 were administered intraperitoneally with solution formulation of PSY-05-00074-001 in 5% NMP, 5% Solutol HS-15 and 90% normal saline at 30 mg/kg dose. Animals in Group 2 were administered orally with solution formulation of PSY-05-00074-001 in 5% NMP, 5% Solutol HS-15 and 90% normal saline at 30 mg/kg dose. Blood samples (approximately 60 μL) were collected under light isoflurane anesthesia from retro orbital plexus at 0.25, 0.5, 1, 2, 4 and 8 hr (IP and PO). Plasma samples were separated by centrifugation of whole blood and stored below −70° C. until bioanalysis. Immediately after collection of blood from intraperitoneal and oral group animals, animals were euthanized with excess CO2 and brain samples were collected from set of two mice at each time point. Brain samples were divided into two parts. Half brain samples were homogenized using ice-cold phosphate buffer saline (pH—7.4) and homogenates were stored below −70±10° C. until analysis. Total homogenate volume was three times the brain weight. Other part of brain was stored below −70±10° C. for further analysis. All samples were processed for analysis by protein precipitation using acetonitrile and analyzed with fit-for-purpose LC/MS/MS method (LLOQ—2.02 ng/mL for plasma and 6.06 ng/g for brain). Pharmacokinetic parameters were calculated using the non-compartmental analysis tool of Phoenix WinNonlin®.
Protocol B: Thirty six mice were included into the study and divided in to three groups as Group 1 (n=12), Group 2 (n=12) and Group 3 (n=12) with n=2 mice per time-point design. Animals in Group 1 were administered intravenously with solution formulation of PSY-05-00414-001 at 5 mg/kg dose. Animals in Group 2 were administered orally with solution formulation of PSY-05-00414-001 at a dose of 5 mg/kg. Animals in Group 3 were administered intraperitoneally with solution formulation of PSY-05-00414-001 at 5 mg/kg dose. The formulation vehicle for all the three groups was 5% NMP, 5% Solutol HS-15 and 90% normal saline. Blood samples (approximately 60 μL) were collected under light isoflurane anesthesia from two mice at 0.25, 0.5, 1, 2, 4 and 8 h. Plasma was harvested by centrifugation of blood and stored at −70±10° C. until analysis. After blood collection, brain was perfused and isolated at 0.25, 0.5, 1, 2, 4 and 8 h. Brain samples were dipped thrice in ice-cold phosphate buffer saline, blotted dry and cut in to two equal portion. Half-brain samples from each time-point were weighed and homogenized using ice-cold phosphate buffer saline with twice volume of brain weight making the total homogenate three volumes and stored below −70±10° C. until analysis. Remaining half-portions of brain samples was snap freeze and kept in −70±10° C. until further confirmation from client. Plasma and brain samples were quantified by fit-for-purpose LC-MS/MS method (LLOQ: 1.01 ng/mL for plasma and 2.02 ng/mL for brain).
Protocol C: Fifty four male mice were included in study and divided in to three groups as Group 1 (n=18), Group 2 (n=18) and Group 3 (n=18) with 3 mice/time point design. Animals from Group 1, Group 2 and Group 3 were administered by intravenous, oral and intraperitoneal route with solution formulation of PSY-05-00451-001 at 5 mg/kg dose, respectively. […]

[3] = Method B: starting concentration of 10 μM
[4] = Method 12: Reaction Biology MAGL enzyme, 15 nM, read-out: MAGL Potency (Detection Method)
[5] = Method A: starting concentration of 100 μM
[6] = Method 2: Cayman Chemical MAGL enzyme, 10 nM, read-out: MAGL Potency (Detection Method)

Chain of Monoacylglycerol Lipase (MAGL) (Q99685 2-303): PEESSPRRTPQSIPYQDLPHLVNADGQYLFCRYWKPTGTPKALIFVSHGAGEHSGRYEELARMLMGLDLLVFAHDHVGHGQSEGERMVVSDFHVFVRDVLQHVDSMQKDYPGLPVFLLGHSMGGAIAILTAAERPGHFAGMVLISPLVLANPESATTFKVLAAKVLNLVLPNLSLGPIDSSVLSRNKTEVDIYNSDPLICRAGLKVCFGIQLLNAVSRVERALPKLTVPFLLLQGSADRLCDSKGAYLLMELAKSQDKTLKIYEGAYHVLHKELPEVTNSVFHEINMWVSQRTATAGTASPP
Chain of human recombinant FAAH (O00519 whole entry): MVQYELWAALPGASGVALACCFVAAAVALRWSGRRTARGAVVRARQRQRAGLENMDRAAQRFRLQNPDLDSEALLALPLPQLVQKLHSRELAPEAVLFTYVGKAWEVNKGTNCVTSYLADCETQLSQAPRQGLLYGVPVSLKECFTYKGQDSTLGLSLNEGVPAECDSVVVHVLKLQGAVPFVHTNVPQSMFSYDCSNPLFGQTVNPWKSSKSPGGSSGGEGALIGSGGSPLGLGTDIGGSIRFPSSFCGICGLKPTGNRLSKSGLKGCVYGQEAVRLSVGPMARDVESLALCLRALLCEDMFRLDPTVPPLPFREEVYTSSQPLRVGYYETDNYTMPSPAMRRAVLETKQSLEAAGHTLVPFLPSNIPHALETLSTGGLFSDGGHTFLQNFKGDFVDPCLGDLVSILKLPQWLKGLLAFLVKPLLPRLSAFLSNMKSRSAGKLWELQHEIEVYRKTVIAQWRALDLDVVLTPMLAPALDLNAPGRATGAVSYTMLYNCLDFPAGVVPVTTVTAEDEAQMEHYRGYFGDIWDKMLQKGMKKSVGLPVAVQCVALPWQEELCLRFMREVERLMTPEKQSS
Chain of MAGL enzyme (Q99685 whole entry): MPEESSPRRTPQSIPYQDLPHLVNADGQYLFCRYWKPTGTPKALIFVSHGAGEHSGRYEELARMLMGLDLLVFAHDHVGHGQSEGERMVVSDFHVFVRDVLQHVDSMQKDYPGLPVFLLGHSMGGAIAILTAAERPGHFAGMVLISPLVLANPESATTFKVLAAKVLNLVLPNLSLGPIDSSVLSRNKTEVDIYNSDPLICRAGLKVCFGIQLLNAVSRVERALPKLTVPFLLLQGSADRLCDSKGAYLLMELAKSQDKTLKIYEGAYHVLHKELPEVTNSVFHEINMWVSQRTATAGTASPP

| A: degree to which MAGL enzymatic activity returned following washout of test compounds (MAGL enzyme) | B: % MAGL activity returning after washout (MAGL enzyme) [%] | IC50 [1, 4] [µM] | IC50 (human recombinant FAAH; [5]) [µM] | Compound | also measured |
| --- | --- | --- | --- | --- | --- |
| 41 | <50 | < 0.05 | – | O=C(c1cc(O)ccc1F)N1CC2(CC(n3cc(C(F)(F)F)c(-c4ccccc4F)n3)C2)C1 [Compound 473, (2-fluoro-5-hydroxyphenyl){6-[3-(o-fluorophenyl)-4-(trifluoromethyl)-1-pyrazolyl]-2-aza-2-spiro[3.3]heptyl}methanone] | IC50 (human recombinant FAAH; [3]): > 10 µM |
| 155 | >50 | 0.05 to 0.15 | – | Cc1cnn(C2CC3(C2)CN(C(=O)c2cc(O)ccc2F)C3)c1-c1cc(F)ccc1Cl (single isomer, unassigned) [Compound 519, (6-(5-(2-chloro-5-fluorophenyl)-4-methyl-1H-pyrazol-1-yl)-2-azaspiro [3.3]heptan-2-yl) (2-fluoro-5-hydroxyphenyl) methanone] | – |
| 100 | >50 | < 0.05 | – | Cc1cn(C2CC3(C2)CN(C(=O)c2cc(O)ccc2F)C3)nc1-c1cc(F)ccc1Cl [Compound 520, {6-[3-(2-chloro-5-fluorophenyl)-4-methyl-1-pyrazolyl]-2-aza-2-spiro[3.3]heptyl}(2-fluoro-5-hydroxyphenyl)methanone] | – |
| 47 | <50 | < 0.05 | – | O=C(c1cc(O)ccc1F)N1CC2(CC(n3cc(C4CC4)c(-c4ccccc4F)n3)C2)C1 [Compound 493, {6-[4-cyclopropyl-3-(o-fluorophenyl)-1-pyrazolyl]-2-aza-2-spiro[3.3]heptyl}(2-fluoro-5-hydroxyphenyl)methanone] | IC50 (human recombinant FAAH; [3]): > 10 µM |
| – | – | < 0.05 | – | Cc1ccc(F)c(-c2nn(C3CC4(C3)CN(C(=O)c3cc(O)ccc3F)C4)cc2C(F)(F)F)c1 [Compound 475, (2-fluoro-5-hydroxyphenyl){6-[3-(2-fluoro-5-tolyl)-4-(trifluoromethyl)-1-pyrazolyl]-2-aza-2-spiro[3.3]heptyl}methanone] | – |

Continued, compound first:

| Compound | A: degree to which MAGL enzymatic activity returned following washout of test compounds (MAGL enzyme) | B: % MAGL activity returning after washout (MAGL enzyme) [%] | IC50 [1, 4] [µM] | IC50 (human recombinant FAAH; [5]) [µM] | also measured |
| --- | --- | --- | --- | --- | --- |
| Cc1cc(C2CC3(C2)CN(C(=O)c2ccccc2F)C3)n(-c2ccccc2C)n1 [Compound 122, (2-fluorophenyl)(6-(3-methyl-1-(o-tolyl)-1H-pyrazol-5-yl)-2-azaspiro[3.3]heptan-2-yl)methanone] | – | – | – | > 10 | IC50 [1, 6]: 1 to 5.1 µM |
| O=C(Oc1ccc([N+](=O)[O-])cc1)N1CCC(C(O)(c2ccc3c(c2)OCO3)c2ccc3c(c2)OCO3)CC1 [JZL-184, reference compound] | complete lack of return of MAGL enzymatic activity after washout | <1 | – | – | – |
| Cc1cc(C2CC3(C2)CN(C(=O)c2cccc(O)c2)C3)n(-c2ccccc2C)n1 [Compound 125, (3-hydroxyphenyl)(6-(3-methyl-1-(o-tolyl)-1H-pyrazol-5-yl)-2-azaspiro[3.3]heptan-2-yl)methanone] | – | – | – | > 10 | IC50 ([1]; Methods 1, 2, read-out: MAGL Potency (Detection Method)): 0.05 to 0.15 µM |
| COc1ccc(F)c(C(=O)N2CC3(CC(c4cc(C)nn4-c4ccccc4C)C3)C2)c1 [Compound 123] | – | – | – | > 10 | IC50 ([1]; Method 2: Cayman Chemical MAGL enzyme, 10 nM, read-out: Potency (MAGL inhibition)): > 10 µM |
| Cc1cc(C2CC3(C2)CN(C(=O)c2cc(O)ccc2F)C3)n(-c2ccccc2C)n1 [Compound 74, (2-fluoro-5-hydroxyphenyl)(6-(3-methyl-1-(o-tolyl)-1H-pyrazol-5-yl)-2-azaspiro[3.3]heptan-2-yl)methanone] | – | – | – | – | AUC(0-t) [2]: 117 ng·h/mL; Cmax ([2]; read-out: Cmax): 102 ng/g |
| Cc1cc(C2CC3(C2)CN(C(=O)c2c(F)ccc(O)c2F)C3)n(-c2ccccc2C)n1 [Compound 127, (2,6-difluoro-3-hydroxyphenyl)(6-(3-methyl-1-(o-tolyl)-1H-pyrazol-5-yl)-2-azaspiro[3.3]heptan-2-yl)methanone] | – | – | – | > 10 | IC50 [1, 6]: 1 to 5.1 µM |
| Cc1ccccc1-n1nc(C2CC3(C2)CN(C(=O)c2cc(O)ccc2F)C3)cc1C [Compound 117] | – | – | – | > 10 | – |
| Cc1ccccc1NC(=O)C1CC2(C1)CN(C(=O)c1cc(O)ccc1F)C2 [Compound 186, N-o-tolyl-2-(2-fluoro-5-hydroxybenzoyl)-2-aza-6-spiro[3.3]heptanecarboxamide] | – | – | – | – | IC50 [1, 6]: 1 to 5.1 µM |
| Cc1cnn(C2CC3(C2)CN(C(=O)c2cc(O)ccc2F)C3)c1-c1ccccc1F [Compound 408, (2-fluoro-5-hydroxyphenyl){6-[5-(o-fluorophenyl)-4-methyl-1-pyrazolyl]-2-aza-2-spiro[3.3]heptyl}methanone] | – | – | – | – | IC50 ([1]; Method 6: Reaction Biology MAGL enzyme, 6 nM, read-out: MAGL Potency (Detection Method)): 0.05 to 0.15 µM |
| O=C(c1cc(O)ccc1F)N1CC2(CC(C(=O)N3CCC4(COC4)C3)C2)C1 [Compound 391] | – | – | – | – | IC50 ([1]; Method 14: Reaction Biology MAGL enzyme, 6 nM, read-out: Potency (MAGL inhibition)): > 10 µM |
| Cc1ccccc1N(C)C(=O)C1CC2(C1)CN(C(=O)c1cc(O)ccc1F)C2 [Compound 185, 2-(2-Fluoro-5-hydroxybenzoyl)-N-Methyl-N-(o-tolyl)-2-azaspiro [3.3]heptane-6-carboxamide] | – | – | – | – | IC50 ([1]; Methods 2, 3, read-out: MAGL Potency (Detection Method)): 0.05 to 0.15 µM |
